Source: patent publication US20250197420A1, “MACROCYCLIC COMPOUNDS, COMPOSITIONS, AND METHODS OF USING THEREOF” (Sionna Therapeutics Inc., priority 2022, published 2025)
Like-named read-outs stand apart in the source and are kept apart here.

What was measured:
[1] = target: T1, Purified recombinant NBD1 (Homo sapiens, UniProt P13569); test: Aggregation analysis using differential static light scattering (DSLS): thermal stability of NBD1; format: binding; details: NBD1 0.2 mg/ml; Tagg of compound well minus average Tagg of DMSO control wells
T1 construct: Purified recombinant NBD1 was produced using previously described methods; made in house
T1 sequence (P13569 423-646 limits assumed): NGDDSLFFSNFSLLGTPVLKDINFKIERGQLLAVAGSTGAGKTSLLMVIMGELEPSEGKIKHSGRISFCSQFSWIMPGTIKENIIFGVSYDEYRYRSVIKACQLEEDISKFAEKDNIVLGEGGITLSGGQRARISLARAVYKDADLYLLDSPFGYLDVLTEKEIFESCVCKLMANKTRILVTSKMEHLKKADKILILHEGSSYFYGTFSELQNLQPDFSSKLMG
In short: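 ΔTagg is compound-well aggregation temperature minus the DMSO-control mean, each Tagg being the inflection point of light scattering measured by DSLS during a 1 °C/min ramp up to 70 °C. The protein was purified NBD1 (0.2 mg/ml) in pH 7.6 buffer containing 2 mM ATP, 5 mM MgCl2 and 1% glycerol.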

[2] = test system: Primary human bronchial epithelial cells from a ΔF508 homozygous CF donor (CF-HBE cells); test: TECC24 recording of CFTR-mediated transepithelial chloride transport, AUC fold over benchmark VX-809 @10 μM; format: cell-based; details: 48 hours incubation, AUC of forskolin-stimulated IEQ
In short: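 Values are the forskolin-to-inhibitor-172 AUC of equivalent Cl− current, derived from transepithelial voltage and resistance, divided by the VX-809 AUC and binned as A <3, B 3–6, C 6–20. Cells were pre-incubated with compound for 48 h at 36.5 °C; the bath (pH 7.4) received benzamil 10 μM, forskolin 10 μM, then CFTRinh-172 20 μM.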

Compound: Methyl (2S)-3-[3-[(13E)-22,28-difluoro-3,6,10,10-tetramethyl-12,12-dioxo-]9-(p-tolylsulfonyl)-24-oxa-12A6-thia-3,4,11,19,30-pentazapentacyclo[23.3.1.12,5.015,23.016,20]triaconta-1(29),2(30),4,13,15,17,20,22,25,27-decaen-6-yl]phenyl]-2-methyl-propanoate
- ring closure, isolated yield (cc_pd bond, 18-membered ring, Pd(PtBu3)2/TEA, toluene, 1.75 mM, 100.0 °C): 65%

Compound: Cn1nc2nc1-c1cc(ccc1F)Oc1c(F)cc3[nH]ccc3c1CCC(=O)NS(=O)(=O)CC=CCC2(C)c1cccc(Br)c1 (centres unmarked)
- ring closure, isolated yield (from C=CCC(C)(c1cccc(Br)c1)c1nc(-c2cc(Oc3c(F)cc4[nH]ccc4c3CCC(=O)NS(=O)(=O)CC=C)ccc2F)n(C)n1, rcm bond, 19-membered ring, Grubbs II (0.2 eq), toluene, 2.4 mM, 65.0 °C, 0.75 h): 60%

Compound: CN1C(=O)OCc2c(c(F)cc3c2ccn3S(=O)(=O)c2ccccc2)Oc2ccc(F)c(c2)-c2nc(nn2C)C(C)(c2cccc(Br)c2)C/C=C\CC1(C)C (centres unmarked)
- ring closure, isolated yield (from (5-(3-(3-(2-(3-Bromophenyl)pent-4-en-2-yl)-1-methyl-1H-1,2,4-triazol-5-yl)-4-fluorophenoxy)-6-fluoro-1 -(phenylsulfonyl)-NH-indol-4-yl)methyl methyl(2-methylpent-4-en-2-yl)carbamate, rcm bond, 19-membered ring, Grubbs II (0.4 eq), toluene, 5.1 mM, 60.0 °C): 60%

Compound: CN1CC(C)(C)CCC[C@](C)(c2cccc(I)c2)c2nc(n(C)n2)-c2cc(ccn2)Oc2c(F)cc3[nH]ccc3c2/C=C/C1=O
- ring closure, isolated yield (from CNCC(C)(C)CCC[C@](C)(c1cccc(I)c1)c1nc(-c2cc(Oc3c(F)cc4[nH]ccc4c3/C=C/C(=O)O)ccn2)n(C)n1, amide bond, 19-membered ring, 2 steps): 37%

Compound: Cc1ccc(S(=O)(=O)n2ccc3c4c(c(F)cc32)Oc2ccnc(c2)-c2nc(nn2C)[C@@](C)(c2cccc(I)c2)CCCCC(C)(C)CN(C)C(=O)C4)cc1
- ring closure, isolated yield (amide bond, 19-membered ring, with chain assembly): 35%

Compound: CCOC(=O)CCc1cccc(C2(C)CCCOC(=O)N(C)C/C=C/c3c(c(F)cc4[nH]ccc34)Oc3ccc(F)c(c3)-c3ncc2[nH]3)c1 (centres unmarked)
- ring closure, isolated yield (from CCC[CH2][Sn](/[CH]=C/CN(C)C(=O)OCCCC(C)(c1cccc(CCC(=O)OCC)c1)c1cnc(-c2cc(Oc3c(F)cc4[nH]ccc4c3Br)ccc2F)[nH]1)([CH2]CCC)[CH2]CCC, cc_pd bond, 19-membered ring): 66%

Compound: CC1(C)CCOCC(c2cccc(CCC(=O)O)c2)n2ccc(n2)-c2cc(ccc2F)Oc2c(F)cc3[nH]ccc3c2COC(=O)N1 (single isomer, unassigned) [Compound 96A, 3-[3-(23,29-difluoro-11,11-dimethyl-13-oxo-8,14,25-trioxa-5,12,20,31-tetrazapentacyclo[24.3.1.12,5.016,24.017,21]hentriaconta-1(30),2(31),3,16,18,21,23,26,28-nonaen-6-yl)phenyl]propanoic acid]
- DSLS (ΔTagg) [1]: C (a value greater than 10 °C and less than or equal to 25 °C is marked “C”)
- TECC (test agent AUC divided by VX-809 AUC) [2]: B (a value between 3 and 6 is marked “B”)

Compound: CC(Cc1cccc(C2(C)CCCCC(C)(C)NC(=O)OCc3c(c(F)cc4[nH]ccc34)Oc3ccc(F)c(c3)-c3nc2nn3C)c1)C(=O)O (single isomer, unassigned) [Compound 101A, 3-[3-(23,29-difluoro-3,6,11,11-tetramethyl-13-oxo-14,25-dioxa-3,4,12,20,31-pentazapentacyclo[24.3.1.12,5.016,24.017,21]-hentriaconta-1(30),2(31),4,16,18,21,23,26,28-nonaen-6-yl)phenyl]-2-methyl-propanoic acid]
- DSLS (ΔTagg) [1]: C (a value greater than 10 °C and less than or equal to 25 °C is marked “C”)
- TECC (test agent AUC divided by VX-809 AUC) [2]: B (a value between 3 and 6 is marked “B”)

Compound: CC1(c2cccc(CCC(=O)O)c2)CCCC2(CC2)CNC(=O)CCc2c(c(F)cc3[nH]ccc23)Oc2ccc(F)c(c2)-c2ncc1[nH]2 (centres unmarked) [Compound 36, 3-[3-(23,29-Difluoro-6-methyl-13-oxo-spiro[25-oxa-3,12,20,31-tetrazapentacyclo[24.3.1.12,5.016,24.017,21]hentriaconta-1(30),2,4,16,18,21,23,26,28-nonaene-10,1′-cyclopropane]-6-yl)phenyl]propanoic acid]
- DSLS (ΔTagg) [1]: C (a value greater than 10 °C and less than or equal to 25 °C is marked “C”)
- TECC (test agent AUC divided by VX-809 AUC) [2]: B (a value between 3 and 6 is marked “B”)

Compound: CN1CCC(C)(C)CCC(C)(c2cccc(CCC(=O)O)c2)c2cnc([nH]2)-c2cc(ccc2F)Oc2c(F)cc3[nH]ccc3c2CCC1=O (centres unmarked) [Compound 29, 3-[3-(23,29-Difluoro-6,9,9,12-tetramethyl-13-oxo-25-oxa-3,12,20,31-tetrazapentacyclo[24.3.1.12,5.016,24.017,21]hentriaconta-1(30),2,4,16,18,21,23,26,28-nonaen-6-yl)phenyl]propanoic acid]
- DSLS (ΔTagg) [1]: C (a value greater than 10 °C and less than or equal to 25 °C is marked “C”)
- TECC (test agent AUC divided by VX-809 AUC) [2]: B (a value between 3 and 6 is marked “B”)

Compound: CN1CC(C)(C)CCCC(C)(c2ccccc2)c2cnc([nH]2)-c2cc(ccc2F)Oc2c(F)c(F)c3[nH]ccc3c2CCC1=O (centres unmarked) [Compound 71, 22,23,29-Trifluoro-6,10,10,12-tetramethyl-6-phenyl-25-oxa-3,12,20,31-tetrazapentacyclo[24.3.1.12,5.016,24.017,21]hentriaconta-1(30),2,4,16,18,21,23,26,28-nonaen-13-one]
- DSLS (ΔTagg) [1]: A (an ΔTagg value less than or equal to 5 °C is marked “A”)
- TECC (test agent AUC divided by VX-809 AUC) [2]: A (a TECC value less than 3 is marked “A”)

Compound: C[C@H](Cc1cccc([C@@]2(C)CCCC(C)(C)CN(C)C(=O)CCc3c(c(F)cc4[nH]ccc34)Oc3ccnc(c3)-c3nc2nn3C)c1)C(=O)O [Compound 119, (2R)-3-[3-[(6R)-23-fluoro-3,6,10,10,12-pentamethyl-13-oxo-25-oxa-3,4,12,20,29,31-hexazapentacyclo[24.3.1.12,5.016,24.017,21]hentriaconta-1(30),2(31),4,16,18,21,23,26,28-nonaen-6-yl]phenyl]-2-methyl-propanoic acid]
- DSLS (ΔTagg) [1]: B (a value above 5 °C and less than or equal to 10 °C is marked “B”)
- TECC (test agent AUC divided by VX-809 AUC) [2]: B (a value between 3 and 6 is marked “B”)

Compound: CN1CC(C)(C)CCCC(C)(c2cccc(CCc3nnn[nH]3)c2)c2cnc([nH]2)-c2cc(ccc2F)Oc2c(F)cc3[nH]ccc3c2CCC1=O (centres unmarked) [Compound 52, 23,29-Difluoro-6,10,10,12-tetramethyl-6-[3-[2-(1H-tetrazol-5-yl)ethyl]phenyl]-25-oxa-3,12,20,31-tetrazapentacyclo[24.3.1.12,5.016,24.017,21]-hentriaconta-1(30),2,4,16,18,21,23,26,28-nonaen-13-one]
- DSLS (ΔTagg) [1]: C (a value greater than 10 °C and less than or equal to 25 °C is marked “C”)
- TECC (test agent AUC divided by VX-809 AUC) [2]: A (a TECC value less than 3 is marked “A”)
